Results taken from patent US20250312258A1, “2,3-PYRROLIDINEDIONE CONJUGATES AND METHODS OF USING THEREOF” (North Carolina State University, priority 2022, published 2025).
In brackets after ≈: the same amount, converted by molar mass. Read-outs that look alike come from different tables or passages of the source.

Legend:
VRSA [1] = assay: MIC against VRSA strain panel (VRS/NRS strains); format: cell-based; conditions: Staphylococcus aureus, read-out: MIC
VRE = assay: MIC / in vitro activity against VRE strain panel; format: cell-based, Enterococcus spp.; conditions: Enterococcus, VRE, read-out: MIC
VRSA [2] = assay: MIC against VRSA (Table 2); format: cell-based; conditions: Staphylococcus aureus, read-out: MIC (VRSA)
Group A Strep = assay: MIC against Group A Strep strain panel; format: cell-based; conditions: read-out: MIC
S. aureus 25923 = assay: Broth microdilution MIC, S. aureus 25923; format: cell-based, Staphylococcus aureus; conditions: Staphylococcus aureus, 25923; read-out: MIC (S. aureus 25923)
MSSA = assay: MIC against MSSA strain panel; format: cell-based; conditions: Staphylococcus aureus, VGP16-94 MSSA, the 4th table, read-out: MIC

CCC1C(c2ccc(C(F)(F)F)cc2)=C(O)C(=O)N1CCCNCCCCNC (stereo not shown) [Compound 8]
MIC (VRSA [1]; NRS 1 / VRSA, NRS-1 (VRSA), the 3rd table): 4 µg/mL (≈ 9.67 µM)
MIC (VRSA [1]; NRS 1 / VRSA, NRS-1 VRSA, the 5th table): 4 µg/mL (≈ 9.67 µM)
MIC (VRSA [1]; NRS 2 / VRSA, NRS-2 VRSA, the 5th table): 2 µg/mL (≈ 4.84 µM)
MIC (VRSA [1]; VRSA, VRS-1 (VRSA), the 3rd table): 32 µg/mL (≈ 77.4 µM)
MIC (VRSA [1]; VRSA, VRS-1 VRSA, the 5th table): 32 µg/mL (≈ 77.4 µM)
MIC (VRSA [1]; VRSA, VRS-2 (VRSA), the 3rd table): 8 µg/mL (≈ 19.3 µM)
MIC (VRSA [1]; VRSA, VRS-2 VRSA, the 5th table): 8 µg/mL (≈ 19.3 µM)
MIC (VRSA [1]; VRSA, VRS-3a VRSA, the 5th table): 4 µg/mL (≈ 9.67 µM)
MIC (VRSA [1]; VRSA, VRS-3b VRSA, the 5th table): > 64 µg/mL
MIC (VRSA [1]; VRSA, VRS-4 (VRSA), the 3rd table): 16 µg/mL (≈ 38.7 µM)
MIC (VRSA [1]; VRSA, VRS-4 VRSA, the 5th table): 16 µg/mL (≈ 38.7 µM)
MIC (VRSA [1]; VRSA, VRS-5 VRSA, the 5th table): 32 µg/mL (≈ 77.4 µM)
MIC (VRSA [1]; VRSA, VRS-6 VRSA, the 5th table): 32 µg/mL (≈ 77.4 µM)
MIC (VRSA [1]; VRSA, VRS-7 VRSA, the 5th table): 32 µg/mL (≈ 77.4 µM)
MIC (VRSA [1]; VRSA, VRS-8 VRSA, the 5th table): 64 µg/mL (≈ 155 µM)
MIC (VRSA [1]; VRSA, VRS-9 VRSA, the 5th table): 64 µg/mL (≈ 155 µM)
MIC (VRSA [1]; VRSA, VRS-10 VRSA, the 5th table): 32 µg/mL (≈ 77.4 µM)
MIC (VRSA [1]; VRSA, VRS-11a VRSA, the 5th table): 64 µg/mL (≈ 155 µM)
MIC (VRSA [1]; VRSA, VRS-11b VRSA, the 5th table): 64 µg/mL (≈ 155 µM)
MIC (VRE; 1593 (VRE), the 3rd table): 32 µg/mL (≈ 77.4 µM)
MIC (VRE; 1593 VRE, the 4th table): 32 µg/mL (≈ 77.4 µM)
MIC (VRE; 1751 (VRE), the 3rd table): 16 µg/mL (≈ 38.7 µM)
MIC (VRE; 1751 VRE, the 6th table): 16 µg/mL (≈ 38.7 µM)
MIC (VRE; 1772 VRE, the 6th table): 32 µg/mL (≈ 77.4 µM)
MIC (VRE; 1946 VRE, the 6th table): 32 µg/mL (≈ 77.4 µM)
MIC (VRE; 2059 VRE, the 6th table): 32 µg/mL (≈ 77.4 µM)
MIC (VRE; 2431 (VRE), the 3rd table): 32 µg/mL (≈ 77.4 µM)
MIC (VRE; 2431 VRE, the 6th table): 32 µg/mL (≈ 77.4 µM)
MIC (VRE; 2574 VRE, the 6th table): 32 µg/mL (≈ 77.4 µM)
MIC (VRE; 3053 VRE, the 6th table): 32 µg/mL (≈ 77.4 µM)
MIC (VRE; 3183 (VRE), the 3rd table): 16 µg/mL (≈ 38.7 µM)
MIC (VRE; 3183 VRE, the 6th table): 16 µg/mL (≈ 38.7 µM)
MIC (VRE; 3190 VRE, the 6th table): 32 µg/mL (≈ 77.4 µM)
MIC (VRE; 3191 VRE, the 6th table): 32 µg/mL (≈ 77.4 µM)
MIC (VRE; 3222 (VRE, the 3rd table)): 16 µg/mL (≈ 38.7 µM)
MIC (VRE; 3222 VRE, the 6th table): 16 µg/mL (≈ 38.7 µM)
MIC (VRE; 3235 VRE, the 6th table): 16 µg/mL (≈ 38.7 µM)
MIC (VRE; 3239 VRE, the 6th table): 32 µg/mL (≈ 77.4 µM)
MIC (VRE; 3241 VRE, the 6th table): 32 µg/mL (≈ 77.4 µM)
MIC (VRE; 3623 VRE, the 6th table): 32 µg/mL (≈ 77.4 µM)
MIC (VRSA [2]): 2 µg/mL (≈ 4.84 µM)
MIC (Group A Strep; 2007-11 Group A Strep, the 8th table): 0.25 µg/mL (≈ 0.605 µM)
MIC (Group A Strep; 2007-28 Group A Strep, the 8th table): < 0.125 µg/mL
MIC (Group A Strep; 2007-49 Group A Strep, the 8th table): ≤ 0.125 µg/mL
MIC (Group A Strep; 2007-73 Group A Strep, the 8th table): ≤ 0.125 µg/mL
MIC (Group A Strep; 2007-107 Group A Strep, the 8th table): 0.25 µg/mL (≈ 0.605 µM)
MIC (Group A Strep; 2007-1101 Group A Strep, the 8th table): ≤ 0.125 µg/mL
MIC (Group A Strep; 2008-06 Group A Strep, the 8th table): ≤ 0.125 µg/mL
MIC (Group A Strep; 2008-45 Group A Strep, the 8th table): ≤ 0.125 µg/mL
MIC (Group A Strep; 2008-818 Group A Strep, CA-MHB w/5% LHB, the 4th table): ≤ 0.125 µg/mL
MIC (Group A Strep; 2008-1565 Group A Strep, the 8th table): 0.25 µg/mL (≈ 0.605 µM)
MIC (Group A Strep; 2008-1692 Group A Strep, the 8th table): 0.25 µg/mL (≈ 0.605 µM)
MIC (Group A Strep; 2008-1732 Group A Strep, CA-MHB w/5% LHB, the 4th table): ≤ 0.125 µg/mL
MIC (Group A Strep; 2009-8 Group A Strep, the 8th table): 0.25 µg/mL (≈ 0.605 µM)
MIC (Group A Strep; 2009-37 Group A Strep, CA-MHB w/5% LHB, the 4th table): ≤ 0.125 µg/mL
MIC (Group A Strep; 2009-106 Group A Strep, the 8th table): 0.25 µg/mL (≈ 0.605 µM)
MIC (Group A Strep; 2009-109 Group A Strep, the 8th table): ≤ 0.125 µg/mL
MIC (Group A Strep; 2009-114 Group A Strep, the 8th table): 0.25 µg/mL (≈ 0.605 µM)
MIC (Group A Strep; 2009-136 Group A Strep, the 8th table): ≤ 0.125 µg/mL
MIC (S. aureus 25923): 0.25 µg/mL (≈ 0.605 µM)
MIC (MSSA): 0.5 µg/mL (≈ 1.21 µM)
